BindingDB's records for patent US10780090 (Millennium Pharmaceuticals, Inc., 2020)

Target: T1, SUMO-activating enzyme subunit 2 (Human, UniProt Q9UBT2)
T1 sequence (Q9UBT2 whole entry): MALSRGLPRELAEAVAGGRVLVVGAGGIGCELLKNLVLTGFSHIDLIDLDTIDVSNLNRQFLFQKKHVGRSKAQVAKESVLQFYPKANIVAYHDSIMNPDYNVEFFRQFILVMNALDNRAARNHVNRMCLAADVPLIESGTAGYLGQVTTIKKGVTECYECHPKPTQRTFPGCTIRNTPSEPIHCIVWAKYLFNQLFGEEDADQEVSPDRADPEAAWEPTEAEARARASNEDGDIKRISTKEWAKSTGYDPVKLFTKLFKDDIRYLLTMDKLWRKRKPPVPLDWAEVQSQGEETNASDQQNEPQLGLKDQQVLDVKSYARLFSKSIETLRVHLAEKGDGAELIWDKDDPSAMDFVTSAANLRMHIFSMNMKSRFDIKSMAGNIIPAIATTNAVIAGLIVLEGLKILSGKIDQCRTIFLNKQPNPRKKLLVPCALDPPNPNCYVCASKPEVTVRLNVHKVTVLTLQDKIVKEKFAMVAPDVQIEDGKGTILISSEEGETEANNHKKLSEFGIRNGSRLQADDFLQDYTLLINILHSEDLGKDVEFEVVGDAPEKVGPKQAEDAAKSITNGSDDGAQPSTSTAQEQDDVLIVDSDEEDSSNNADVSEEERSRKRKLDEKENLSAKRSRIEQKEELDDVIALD
Assay: Enzyme Assay
Protocol: After incubation for 2 hours at 24° C., quantification of FRET is performed on the Pherostar (BMG Labtech). Percentage inhibition values at a single concentration or enzyme inhibition (IC50) values are determined from those curves. One skilled in the art will appreciate that the values generated either as percentage inhibition at a single concentration or IC50 values are subject to experimental variation.

## CN1Cc2ccccc2[C@@H]1c1cc(C(=O)c2cncnc2N[C@@H]2C[C@H](COS(N)(=O)=O)[C@@H](O)C2)sc1Cl [US10780090, Compound I-304]
  IC50: < 10 nM

## CN1Cc2ccccc2[C@@H]1c1csc(C(=O)c2cncnc2N[C@@H]2C[C@H](COS(N)(=O)=O)[C@@H](O)C2)c1 [US10780090, Compound I-308]
  IC50: < 10 nM

## CC(C)(C)OC(=O)N1CCc2ccc(Cl)cc2[C@@H]1c1cc(C(=O)c2cncnc2N[C@@H]2C[C@H](COS(N)(=O)=O)[C@@H](O)C2)sc1Cl [US10780090, Compound I-336]
  IC50: 100 to 1000 nM

## Cc1sc(C(=O)c2cncnc2N[C@@H]2C[C@H](COS(N)(=O)=O)[C@@H](O)C2)cc1[C@@H]1OCCc2ccc(C#N)cc21 [US10780090, Compound I-313]
  IC50: < 10 nM

## Cc1sc(C(=O)c2cncnc2N[C@@H]2C[C@H](COS(N)(=O)=O)[C@@H](O)C2)cc1[C@@H]1OCC(F)(F)c2ncccc21 [US10780090, Compound I-331]
  IC50: 100 to 1000 nM

## CN(c1ncncc1C(=O)c1cc([C@@H]2OCCc3ccc(Cl)cc32)c(CO)s1)[C@@H]1C[C@H](COS(N)(=O)=O)[C@@H](O)C1 [US10780090, Compound I-366]
  IC50: < 10 nM

## NS(=O)(=O)OC[C@H]1C[C@@H](Nc2ncncc2C(=O)c2cc(Cc3cccc(Br)n3)c(Cl)s2)C[C@@H]1O [US10780090, Compound I-46]
  IC50: < 10 nM

## CC(C)(C)OC(=O)N1CCc2ccc(Cl)cc2[C@@H]1c1csc(C(=O)c2cncnc2N[C@@H]2C[C@H](COS(N)(=O)=O)[C@@H](O)C2)c1 [US10780090, Compound I-334]
  IC50: 100 to 1000 nM

## C[C@@]1(c2csc(C(=O)c3cncnc3N[C@@H]3C[C@H](COS(N)(=O)=O)[C@@H](O)C3)c2)NCCc2ccccc21 [US10780090, Compound I-318]
  IC50: < 10 nM

## Cc1sc(C(=O)c2cncnc2N[C@@H]2C[C@H](COS(N)(=O)=O)[C@@H](O)C2)cc1[C@@H]1OCC(F)(F)c2ccc(Cl)cc21 [US10780090, Compound I-288]
  IC50: < 10 nM

## Cc1sc(C(=O)c2cncnc2N[C@@H]2C[C@H](COS(N)(=O)=O)[C@@H](O)C2)cc1[S@+]([O-])c1cccc(C(F)(F)F)c1 [US10780090, Compound I-69]
  IC50: < 10 nM

## NS(=O)(=O)OC[C@H]1C[C@@H](Nc2ncncc2C(=O)c2cc(Cc3cccc(Br)c3)c(Cl)s2)C[C@@H]1O [US10780090, Compound I-112]
  IC50: < 10 nM
